Reference: patent US20100022584A1, “Modulation of Glutamine Synthetase Activity” (priority 2006, published 2010)
Residue numbers refer to the chain shown, from its start.

How the values were obtained:
[1] = target: T1, glutamine synthetase mutant Y397V (Escherichia coli, UniProt P0A9C5, Y398V); assay: HPLC forward-reaction glutamine synthetase assay with serine protease inhibitors; type: biochemical, E. coli; conditions: 1 mM inhibitor; for inhibition of the enzyme (in words): HPLC assays; for % Conversion: glutamine-based divided by ADP-based specific activity
T1 construct: made in house; host or cells: E. coli YMC11 (glutamine synthetase auxotroph), pBluescript II SK+
T1 sequence (P0A9C5 2-469 Y398V limits assumed): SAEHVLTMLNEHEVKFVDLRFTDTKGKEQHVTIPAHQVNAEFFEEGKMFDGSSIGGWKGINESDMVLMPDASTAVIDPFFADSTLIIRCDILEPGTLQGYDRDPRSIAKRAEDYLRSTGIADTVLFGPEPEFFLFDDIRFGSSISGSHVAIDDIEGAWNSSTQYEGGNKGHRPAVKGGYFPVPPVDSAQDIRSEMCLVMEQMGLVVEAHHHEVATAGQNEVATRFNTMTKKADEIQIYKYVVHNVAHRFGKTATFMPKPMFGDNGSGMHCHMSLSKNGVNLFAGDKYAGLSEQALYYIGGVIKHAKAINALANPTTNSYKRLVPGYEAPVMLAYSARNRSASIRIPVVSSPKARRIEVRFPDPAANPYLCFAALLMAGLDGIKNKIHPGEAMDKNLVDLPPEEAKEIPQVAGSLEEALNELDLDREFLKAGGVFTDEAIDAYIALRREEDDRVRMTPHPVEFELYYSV

[2] = target: T2, deadenylylated WT enzyme, WT (DD) glutamine synthetase (Escherichia coli, UniProt P0A9C5); assay: as above; type: biochemical, E. coli; conditions: 1 mM inhibitor; for % Reduction in ADP-based Specific Activity / % Reduction in Glutamine-based Specific Activity: 60 min pre-incubation, vs no-inhibitor control, positive = activity increased; for % Conversion: glutamine-based divided by ADP-based specific activity
T2 construct: made in house; host or cells: E. coli carrying pBSK-ECgln (pBluescript II SK+), continuous culture; YMC11 is the expression strain named for this plasmid
T2 sequence (P0A9C5 2-469 limits assumed): T1 sequence (P0A9C5 2-469 Y398V limits assumed) with V397Y

Row | Compound | inhibition of the enzyme (in words) [1] | % Conversion ([1]; Mg assay) [%] | % Conversion ([1]; Mn assay) [%] | % Reduction in ADP-based Specific Activity ([2]; Mg assay) [%] | % Reduction in Glutamine-based Specific Activity ([2]; Mg assay) [%] | % Conversion ([2]; Mg assay) [%] | % Reduction in ADP-based Specific Activity ([2]; Mn assay) [%] | % Reduction in Glutamine-based Specific Activity ([2]; Mn assay) [%] | % Conversion ([2]; Mn assay) [%]
1 | NCCc1ccc(S(=O)(=O)F)cc1 [AEBSF] | appeared to cause inhibition | 107 | 108 | −14.98 | −8.43 | 82 | −4.73 | −2.23 | 94
2 | O=S(=O)(F)Cc1ccccc1 [PMSF] | found to inhibit | 78 | 61 | −6.07 | −16.55 | 67 | −3.53 | −17.69 | 78
